Results from PubChem BioAssay (NCI).
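Following 48 hours of exposure in 96-well plates, responses at five concentrations were used to interpolate endpoints linearly. GI50 marks 50% less growth. TGI denotes the concentration required for complete inhibition of growth.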

Experiments:
Assay in all cases: NCI anticancer screen, dose series, 48 h
HOP-62 NSCLC = test system: HOP-62 NSCLC
SNB-75 CNS = test system: SNB-75 CNS
RXF 393 renal = test system: RXF 393 renal
RPMI-8226 leukemia = test system: RPMI-8226 leukemia
SF-295 CNS = test system: SF-295 CNS
SN12C renal = test system: SN12C renal
U251 CNS = test system: U251 CNS
ACHN renal = test system: ACHN renal
SK-MEL-28 melanoma = test system: SK-MEL-28 melanoma
NCI-H23 lung = test system: NCI-H23 lung
HL-60(TB) leukemia = test system: HL-60(TB) leukemia
M14 melanoma = test system: M14 melanoma
MDA-MB-435 = test system: MDA-MB-435
MALME-3M melanoma = test system: MALME-3M melanoma
HT29 colon = test system: HT29 colon
LOX IMVI melanoma = test system: LOX IMVI melanoma
COLO 205 colon = test system: COLO 205 colon
OVCAR-8 ovarian = test system: OVCAR-8 ovarian
OVCAR-4 ovarian = test system: OVCAR-4 ovarian
A498 renal = test system: A498 renal
CCRF-CEM leukemia = test system: CCRF-CEM leukemia
SK-MEL-5 melanoma = test system: SK-MEL-5 melanoma
SK-MEL-2 melanoma = test system: SK-MEL-2 melanoma
HCT-15 colon = test system: HCT-15 colon
NCI-H522 lung = test system: NCI-H522 lung
MDA-MB-231 breast = test system: MDA-MB-231 breast
K-562 leukemia = test system: K-562 leukemia
SR leukemia = test system: SR leukemia
SK-OV-3 ovarian = test system: SK-OV-3 ovarian
A549 NSCLC = test system: A549 NSCLC
BT-549 breast = test system: BT-549 breast
PC-3 prostate = test system: PC-3 prostate
HOP-92 NSCLC = test system: HOP-92 NSCLC
T-47D breast = test system: T-47D breast
DU-145 prostate = test system: DU-145 prostate
IGROV1 ovarian = test system: IGROV1 ovarian
TK-10 renal = test system: TK-10 renal
EKVX NSCLC = test system: EKVX NSCLC
HCC-2998 colon = test system: HCC-2998 colon
NCI-H460 lung = test system: NCI-H460 lung
UO-31 renal = test system: UO-31 renal
UACC-62 melanoma = test system: UACC-62 melanoma
SW-620 colon = test system: SW-620 colon
HS 578T breast = test system: HS 578T breast
786-0 renal = test system: 786-0 renal
OVCAR-5 ovarian = test system: OVCAR-5 ovarian
KM12 colon = test system: KM12 colon
SF-539 CNS = test system: SF-539 CNS
UACC-257 melanoma = test system: UACC-257 melanoma
HCT-116 colon = test system: HCT-116 colon
OVCAR-3 ovarian = test system: OVCAR-3 ovarian

O=C(O)c1ccc([S-])cc1.[Au+].c1ccc(CN2[CH-]N(Cc3ccccc3)C(c3ccccc3)=C2c2ccccc2)cc1
GI50 (HOP-62 NSCLC): 416 nM
TGI (HOP-62 NSCLC): 1730 nM
GI50 (SNB-75 CNS): 298 nM
TGI (SNB-75 CNS): 1510 nM
GI50 (RXF 393 renal): 305 nM
TGI (RXF 393 renal): 1130 nM
GI50 (RPMI-8226 leukemia): 323 nM
TGI (RPMI-8226 leukemia): 2000 nM
GI50 (SF-295 CNS): 242 nM
TGI (SF-295 CNS): 1090 nM
GI50 (SN12C renal): 305 nM
TGI (SN12C renal): 1300 nM
GI50 (U251 CNS): 321 nM
TGI (U251 CNS): 1360 nM
GI50 (ACHN renal): 332 nM
TGI (ACHN renal): 1280 nM
GI50 (SK-MEL-28 melanoma): 430 nM
TGI (SK-MEL-28 melanoma): 1710 nM
GI50 (NCI-H23 lung): 314 nM
TGI (NCI-H23 lung): 1210 nM
GI50 (HL-60(TB) leukemia): 321 nM
TGI (HL-60(TB) leukemia): 1290 nM
GI50 (M14 melanoma): 385 nM
TGI (M14 melanoma): 1610 nM
GI50 (MDA-MB-435): 417 nM
TGI (MDA-MB-435): 1460 nM
GI50 (MALME-3M melanoma): 249 nM
TGI (MALME-3M melanoma): 797 nM
GI50 (HT29 colon): 434 nM
TGI (HT29 colon): 1580 nM
GI50 (LOX IMVI melanoma): 311 nM
TGI (LOX IMVI melanoma): 1370 nM
GI50 (COLO 205 colon): 269 nM
TGI (COLO 205 colon): 824 nM
GI50 (OVCAR-8 ovarian): 417 nM
TGI (OVCAR-8 ovarian): 1660 nM
GI50 (OVCAR-4 ovarian): 373 nM
TGI (OVCAR-4 ovarian): 1300 nM
GI50 (A498 renal): 246 nM
TGI (A498 renal): 954 nM
GI50 (CCRF-CEM leukemia): 356 nM
TGI (CCRF-CEM leukemia): 2720 nM
GI50 (SK-MEL-5 melanoma): 281 nM
TGI (SK-MEL-5 melanoma): 1030 nM
GI50 (SK-MEL-2 melanoma): 346 nM
TGI (SK-MEL-2 melanoma): 1210 nM
GI50 (HCT-15 colon): 1040 nM
TGI (HCT-15 colon): 2550 nM
GI50 (NCI-H522 lung): 285 nM
TGI (NCI-H522 lung): 1200 nM
GI50 (MDA-MB-231 breast): 304 nM
TGI (MDA-MB-231 breast): 1180 nM
GI50 (K-562 leukemia): 330 nM
TGI (K-562 leukemia): 1670 nM
GI50 (SR leukemia): 429 nM
TGI (SR leukemia): 2760 nM
GI50 (SK-OV-3 ovarian): 352 nM
TGI (SK-OV-3 ovarian): 1390 nM
GI50 (A549 NSCLC): 358 nM
TGI (A549 NSCLC): 1630 nM
GI50 (BT-549 breast): 318 nM
TGI (BT-549 breast): 1420 nM
GI50 (PC-3 prostate): 308 nM
TGI (PC-3 prostate): 1440 nM
GI50 (HOP-92 NSCLC): 204 nM
TGI (HOP-92 NSCLC): 806 nM
GI50 (T-47D breast): 312 nM
TGI (T-47D breast): 1530 nM
GI50 (DU-145 prostate): 526 nM
TGI (DU-145 prostate): 1740 nM
GI50 (IGROV1 ovarian): 541 nM
TGI (IGROV1 ovarian): 2150 nM
GI50 (TK-10 renal): 613 nM
TGI (TK-10 renal): 1980 nM
GI50 (EKVX NSCLC): 274 nM
TGI (EKVX NSCLC): 1530 nM
GI50 (HCC-2998 colon): 536 nM
TGI (HCC-2998 colon): 1880 nM
GI50 (NCI-H460 lung): 328 nM
TGI (NCI-H460 lung): 1280 nM
GI50 (UO-31 renal): 311 nM
TGI (UO-31 renal): 1270 nM
GI50 (UACC-62 melanoma): 319 nM
TGI (UACC-62 melanoma): 1400 nM
GI50 (SW-620 colon): 418 nM
TGI (SW-620 colon): 1930 nM
GI50 (HS 578T breast): 459 nM
TGI (HS 578T breast): 2840 nM
GI50 (786-0 renal): 376 nM
TGI (786-0 renal): 1590 nM
GI50 (OVCAR-5 ovarian): 918 nM
TGI (OVCAR-5 ovarian): 2200 nM
GI50 (KM12 colon): 513 nM
TGI (KM12 colon): 1820 nM
GI50 (SF-539 CNS): 505 nM
TGI (SF-539 CNS): 1780 nM
GI50 (UACC-257 melanoma): 283 nM
TGI (UACC-257 melanoma): 1200 nM
GI50 (HCT-116 colon): 301 nM
TGI (HCT-116 colon): 1260 nM
GI50 (OVCAR-3 ovarian): 373 nM
TGI (OVCAR-3 ovarian): 1280 nM
